Experimental findings from ChEMBL document CHEMBL4411274, “Recent advances of tetrazole derivatives as potential anti-tubercular and anti-malarial agents” (Eur J Med Chem, 2019) are described below.

The structures appear in SMILES notation. pIC50: −log10 of the molar value. In brackets after ≈: the same amount, converted by molar mass. Bounds are passed on as bounds.

The subject of assay [1] is Mycobacterium tuberculosis. Briefly: Antibacterial activity against Mycobacterium tuberculosis CNCTC My 331/88. Format: functional.
The test system of assay [2] is Mycobacterium kansasii. Briefly: Antibacterial activity against Mycobacterium kansasii CNCTC My 235/80. The class given is functional.
Assay [3] relates to Mycobacterium avium. Briefly: Antibacterial activity against Mycobacterium avium CNCTC My 330/88. The class given is functional.
In assay [4] the test system is Mycobacterium kansasii. In words: Antibacterial activity against Mycobacterium kansasii isolate 6509/96. The class given is functional.
In assay [5] the test system is Mycobacterium kansasii. Briefly: Potency index, ratio of isoniazid MIC to compound MIC for Mycobacterium kansasii CNCTC My 235/80. The class given is functional.
For assay [6], the system named is Mycobacterium avium. In words: Potency index, ratio of isoniazid MIC to compound MIC for Mycobacterium avium CNCTC My 330/88. Format: functional.
Assay [7] has as its system Mycobacterium tuberculosis. Briefly: Antibacterial activity against Mycobacterium tuberculosis H37Rv after 5 days. The class given is functional. The conditions noted are these: 120 h.
For assay [8], the system named is Mycobacterium tuberculosis. In words: Antibacterial activity against Mycobacterium tuberculosis H37Rv. The class given is functional.
Assay [9] has as its system Plasmodium falciparum. Briefly: Antimalarial activity against chloroquine resistant Plasmodium falciparum FcB1R. Format: functional, organism-based.
For assay [10], the system named is Plasmodium falciparum. Briefly: Antimalarial activity against ring-stage multidrug-resistant Plasmodium falciparum Dd2 preincubated for 6 hrs followed by compound wash and measured after 66 hrs by Giemsa-staining based light microscopic analysis. The class given is functional, organism-based.
The test system of assay [11] is Plasmodium falciparum. In words: Antimalarial activity against ring-stage chloroquine-susceptible Plasmodium falciparum 3D7 preincubated for 6 hrs followed by compound wash and measured after 66 hrs by Giemsa-staining based light microscopic analysis. Format: functional, organism-based.
Assay [12] concerns Mycobacterium tuberculosis. In words: Antibacterial activity against Mycobacterium tuberculosis H37Rv by MABA. The class given is functional. (Alamar Blue is a resazurin reagent that responds to reducing activity.)
For assay [13], the system named is Mycobacterium tuberculosis. Briefly: Antibacterial activity against Mycobacterium tuberculosis H37Rv by resazurin dye-based assay. Format: functional.

Regarding `Clc1ccc(-n2nnnc2SCc2ccccc2)cc1Cl`, the MIC – broadly, the lowest concentration that inhibits growth of the organism – in assay [1] lay in the range of 8 to 62.5 µg/mL (≈ 23.7 to 185 µM); against Mycobacterium kansasii [2], 8 to 250 µg/mL (≈ 23.7 to 741 µM); against Mycobacterium avium [3], 8 to 250 µg/mL (≈ 23.7 to 741 µM); with Mycobacterium kansasii [4] it was 8 to 62.5 µg/mL (≈ 23.7 to 185 µM). Also, the Ratio in the assay on Mycobacterium kansasii [5] and with Mycobacterium avium [6] was more than 4 throughout. `Cn1nnnc1SC1=CS(=O)(=O)c2ccccc21` gave an MIC in assay [7] of 2.6 µM (≈ 0.729 µg/mL). `Cc1ccc(-n2c(-c3cc4cc(Cl)ccc4n4nnnc34)nc(-c3ccccc3)c2-c2ccccc2)cc1`: the MIC in assay [8] was determined as 25 µg/mL (≈ 48.7 µM). For `CC1=C(CCc2nnnn2CCCC#N)C(=O)c2ccccc2C1=O`, in the assay with Plasmodium falciparum [9], the pIC50 (usually the negative decadic logarithm of the IC50, by convention in mol/L) is 5.85 to 6.05. In assay [8], `Cc1ccc2c(c1)cc(C1C3=C(CC(C)(C)CC3=O)N(c3ccc(F)cc3)C3=C1C(=O)CC(C)(C)C3)c1nnnn12` gave an MIC of 50 µg/mL (≈ 91 µM).

Compound `CC1=C(CCc2nnnn2CCCCCC#N)C(=O)c2ccccc2C1=O` showed a pIC50 in the assay on Plasmodium falciparum [9] of 5.85 to 6.05. Still for that read-out and setting: to `CC1=C(CCc2nnnn2CCCCC#N)C(=O)c2ccccc2C1=O` belongs 5.85 to 6.05.

In the case of `c1cnc(-c2nn3nnnc3o2)cn1`, in [8], inhibition of growth (MIC) required 50 µg/mL (≈ 264 µM). As to `C[C@H]1[C@H](OC(=O)CCC(=O)O)O[C@@H]2O[C@@]3(C)CC[C@H]4[C@H](C)CC[C@@H]1[C@@]24OO3` [ARTESUNATE], the pIC50 was 8.34 in the assay on Plasmodium falciparum [10] and 8.29 with Plasmodium falciparum [11]. In the case of `CC[C@@H](CO)NCCN[C@@H](CC)CO` [ETHAMBUTOL], the minimum inhibitory concentration (MIC) stood at 1.56 µg/mL (≈ 7.64 µM) in assay [12] and 2 µg/mL (≈ 9.79 µM) in [8]. With `NNC(=O)c1ccncc1` [ISONIAZID], the MIC in assay [8] stood at 0.2 µg/mL (≈ 1.46 µM); in assay [13], 0.063 µg/mL (≈ 0.459 µM); in assay [1], 0.5 µg/mL (≈ 3.65 µM); against Mycobacterium kansasii [4], 4 µg/mL (≈ 29.2 µM).

As to `CO[C@H]1/C=C/O[C@@]2(C)Oc3c(C)c(O)c4c(O)c(c(/C=N/N5CCN(C)CC5)c(O)c4c3C2=O)NC(=O)/C(C)=C\C=C\[C@H](C)[C@H](O)[C@@H](C)[C@@H](O)[C@@H](C)[C@H](OC(C)=O)[C@@H]1C` [RIFAMPIN], the MIC was 0.25 to 40 µg/mL (≈ 0.304 to 48.6 µM) in [8] and 0.006 µg/mL (≈ 0.00729 µM) in assay [13]. In turn, `CN[C@@H]1[C@H](O[C@H]2[C@H](O[C@H]3[C@H](O)[C@@H](O)[C@H](N=C(N)N)[C@@H](O)[C@@H]3N=C(N)N)O[C@@H](C)[C@]2(O)C=O)O[C@@H](CO)[C@H](O)[C@H]1O` [STREPTOMYCIN] displayed an MIC in assay [8] of 4 µg/mL (≈ 6.88 µM).
